Test results reported in ChEMBL document CHEMBL1201862, “PubChem BioAssay data set” (2004).
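Where inhibition never reached the appropriate level, the endpoint shown equals the highest concentration tested. Otherwise, values were interpolated linearly from a five-concentration, 48-hour dose response in 96-well plates. Here, GI50 denotes the concentration required for 50% inhibition of growth.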 The source made the active and inactive calls. No stated cut-off is given here; in the data, active = GI50 up to about 1.1 µM and inactive = higher.

What was measured:
Assay in all cases: inhibition of tumour cell growth, NCI panel, 48 h
[1] = tested on: SNB-75
[2] = tested on: OVCAR-8
[3] = tested on: SF-268
[4] = tested on: NCI-H522
[5] = tested on: HCT-116
[6] = tested on: U-251
[7] = tested on: SF-539
[8] = tested on: SK-MEL-28
[9] = tested on: MOLT-4
[10] = tested on: UO-31
[11] = tested on: CCRF-CEM
[12] = tested on: OVCAR-3
[13] = tested on: Malme-3M
[14] = tested on: KM12
[15] = tested on: LOX IMVI
[16] = tested on: HCT-15
[17] = tested on: NCI-H23
[18] = tested on: SK-OV-3
[19] = tested on: NCI-H460
[20] = tested on: OVCAR-5

SMILES: NC1(C(=O)O)CCCC1 [CYCLOLEUCINE]
- GI50 [1]: > 625 µM (inactive)
- GI50 [2]: > 625 µM (inactive)
- GI50 [3]: > 177 µM (inactive)
- GI50 [4]: > 625 µM (inactive)
- GI50 [5]: > 625 µM (inactive)
- GI50 [6]: > 625 µM (inactive)
- GI50 [7]: > 625 µM (inactive)
- GI50 [8]: > 625 µM (inactive)
- GI50 [9]: > 625 µM (inactive)
- GI50 [10]: > 625 µM (inactive)
- GI50 [11]: > 625 µM (inactive)
- GI50 [12]: > 62.5 µM (inactive)
- GI50 [13]: > 625 µM (inactive)
- GI50 [14]: > 625 µM (inactive)
- GI50 [15]: > 625 µM (inactive)
- GI50 [16]: > 625 µM
- GI50 [17]: > 625 µM (inactive)
- GI50 [18]: > 625 µM (inactive)
- GI50 [19]: > 625 µM (inactive)
- GI50 [20]: > 625 µM (inactive)
